Results taken from US20240239748A1, “NOVEL FORMS OF ENTINOSTAT” (Macfarlan Smith Limited, priority 2021, published 2024).
Converted amounts (≈) assume the structure as drawn. Where two headings read alike, the source gives them in different places.

How the values were obtained:
[1] = Description: XRPD diffractograms are collected on a Bruker D8 diffractometer using Cu Ka radiation (40 kV, 40 mA) and a 0-20 goniometer fitted with a Ge monochromator. The incident beam passes through a 2.0 mm divergence slit followed by a 0.2 mm anti-scatter slit and knife edge. The diffracted beam passes through an 8.0 mm receiving slit with 2.5° Soller slits followed by the Lynxeye Detector. The software used for data collection and analysis is Diffrac Plus XRD Commander and Diffrac Plus EVA respectively. Samples are run under ambient conditions as flat plate specimens using powder as received. The sample is prepared on a polished, zero-background (510) silicon wafer by gently pressing onto the flat surface or packed into a cut cavity. The sample is rotated in its own plane.
The details of the standard data collection method are: • Angular range: 2 to 42° 20 • Step size: 0.05° 20 • Collection time: 0.5 s/step (total collection time: 6.40 min)

[2] = remark: listed apart in the source
Description: Sorption isotherms are obtained using a Hiden IGASorp moisture sorption analyser, controlled by Isochema HISorp software. The sample temperature is maintained at 25° C. by a Grant LT ecocool 150 re-circulating water bath. The humidity is controlled by mixing streams of dry and wet nitrogen, with a total flow rate of 250 ml/min. The relative humidity is measured by a calibrated Vaisala RH probe (dynamic range of 0-95% RH), located near the sample. The weight change, (mass relaxation) of the sample as a function of % RH is constantly monitored by the microbalance (accuracy±0.001 mg). Typically, 20-30 mg of sample is placed in a tared mesh stainless steel basket under ambient conditions. The sample is loaded and unloaded at 40% RH and 25° C.(typical room conditions). A moisture sorption isotherm is performed as outlined below (2 scans, giving 1 complete cycle). The standard isotherm is performed at 25° C. at 10% RH intervals over a 0-90% RH range.

[3] = 4 hour solubility in buffered media (HPLC quantitation); assay type: physicochemical; conditions: thermodynamic from solid, 25° C.
Description: Sufficient sample is suspended in 1.0 ml media for a maximum anticipated concentration of about 10 mg/ml of the free form of the compound. The resulting suspensions are then shaken at 25° C./750 rpm for 4 hours. The pH of the sample solutions is checked after 1 hour to ensure that the desired pH is maintained throughout (+0.2). After equilibration, the appearance is noted, and the final pH of the saturated solution is measured. Samples are then filtered through a glass ‘C’ fibre filter (Particle retention size 1.2 μm), before dilution with buffer as appropriate. Quantitation is by HPLC with reference to a standard solution of approximately 0.15 mg/ml. Different volumes of the standard, diluted and undiluted sample solutions are injected.
The HPLC method for solubility measurements is as follows:
Analysis is performed on an Agilent HP1100/Infinity II 1260 series system equipped with a diode array detector and using OpenLAB software.

Nc1ccccc1NC(=O)c1ccc(CNC(=O)OCc2cccnc2)cc1.O=C(O)C=CC(=O)O
stability of crystalline form (no change in form by XRPD) ([1]; 40° C./75% RH): stable at 40° C./75% RH for at least two weeks

Nc1ccccc1NC(=O)c1ccc(CNC(=O)OCc2cccnc2)cc1.O=C(O)CCC(=O)O [Form A of entinostat compound with succinic acid]
reversible water uptake by GVS ([2]; 25° C., 0-90% RH): ~0.5 wt % | post GVS XRPD, change of crystalline form ([2]; after GVS cycle): no change in crystalline form | time the form remains stable, as evidenced by XRPD ([1]; 25° C./97% RH): at least 28 days | time the form remains stable, as evidenced by XRPD ([1]; 40° C./75% RH): at least 28 days

Nc1ccccc1NC(=O)c1ccc(CNC(=O)OCc2cccnc2)cc1.O=C(O)CCC(=O)O [Form B of entinostat compound with succinic acid]
time the form remains stable, as evidenced by XRPD ([1]; 40° C./75% RH): at least 7 days

Nc1ccccc1NC(=O)c1ccc(CNC(=O)OCc2cccnc2)cc1.O=C(O)CCC(=O)O [Form C of entinostat compound with succinic acid]
time the form remains stable, as evidenced by XRPD ([1]; 40° C./75% RH): at least 7 days

Nc1ccccc1NC(=O)c1ccc(CNC(=O)OCc2cccnc2)cc1 [U.S. Pat. No. 7,973,166 Polymorph A, N-(2-aminophenyl)-4-[N-(pyridine-3-yl)-methoxycarbonylamino-methyl]-benzamide]
solubility at 4 h ([3]; aqueous buffer, pH 4.5 acetate buffer): 190 µg/mL (≈ 505 µM) | solubility at 4 h ([3]; aqueous buffer, pH 6.8 phosphate buffer): 75 µg/mL (≈ 199 µM) | solubility at 4 h ([3]; aqueous buffer, pH 7.5 phosphate buffer): 72 µg/mL (≈ 191 µM) | solubility at 4 h ([3]; buffer pH 2.8, aqueous buffer, pH 2.8 buffer): 5900 µg/mL (≈ 15700 µM) | solubility at 4 h ([3]; simulated gastric fluid, pH 1.2 hydrochloric acid buffer): > 7900 µg/mL
